The record followed here is US10246456B2, “IRAK4 inhibiting agents” (BIOGEN MA INC., priority 2014, dated 2019).

For the assay, the target named is IRAK4 (Homo sapiens (Human), UniProt Q9NWZ3). Description: IRAK-4 AlphaScreen biochemical kinase assay. The following applies: 1 nM IRAK4, 1 mM ATP, 3.5 h at RT. The essentials: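 AlphaScreen read-out: streptavidin beads bind the biotinylated peptide and protein A beads bind the anti-phosphothreonine antibody, so energy transfer reports phosphorylation of the peptide. The kinase is human IRAK-4.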
Sequence of IRAK4 (Q9NWZ3 whole entry, species assumed): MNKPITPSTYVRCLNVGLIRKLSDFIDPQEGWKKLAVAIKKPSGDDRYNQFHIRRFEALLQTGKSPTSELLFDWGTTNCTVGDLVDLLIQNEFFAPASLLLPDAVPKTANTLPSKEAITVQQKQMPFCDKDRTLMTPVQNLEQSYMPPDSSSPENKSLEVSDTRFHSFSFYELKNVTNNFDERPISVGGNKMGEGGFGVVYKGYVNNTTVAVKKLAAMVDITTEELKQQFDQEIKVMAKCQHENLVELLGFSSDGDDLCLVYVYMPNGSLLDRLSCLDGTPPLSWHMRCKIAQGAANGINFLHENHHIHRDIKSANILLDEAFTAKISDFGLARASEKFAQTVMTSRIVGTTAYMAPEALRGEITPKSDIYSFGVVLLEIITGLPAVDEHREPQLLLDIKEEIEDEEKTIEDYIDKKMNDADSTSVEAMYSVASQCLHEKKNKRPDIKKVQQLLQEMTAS
A general note: Bead proximity is the source of the signal in Alpha formats.

What is called IC50 is the concentration that gives 50% inhibition. Low readings indicate inhibition by little substance, high ones a need for much substance. In turn, `COCCOc1cc(-c2cccc([C@@H](N)C(C)F)n2)cc2c1cnn2-c1cccc(CO)n1` (stereo partly drawn) [Example 433, (6-(6-(6-((1R)-1-amino-2-fluoropropyl)pyridin-2-yl)-4-(2-methoxyethoxy)-1H-indazol-1-yl)pyridin-2-yl)methanol] showed an IC50 below 0.1 µM.
With `C=CC[C@H](N)c1cccc(-c2ccc3cnn(-c4cccc(CO)n4)c3c2)n1` [Example 435, (S)-(6-(6-(6-(1-aminobut-3-en-1-yl)pyridin-2-yl)-1H-indazol-1-yl)pyridin-2-yl)methanol] the figure was below 0.1 µM; with `CCOc1cc(-c2cccc([C@@H](N)c3ccccc3)n2)cc2c1cnn2-c1cccc(CO)n1` [Example 440, (S)-(6-(6-(6-(amino(phenyl)methyl)pyridin-2-yl)-4-ethoxy-1H-indazol-1-yl)pyridin-2-yl)methanol], below 0.1 µM.
Then `CC#CC[C@H](N)c1cccc(-c2cc(OCC)c3cnn(-c4cccc(CO)n4)c3c2)n1` [Example 441, (S)-(6-(6-(6-(1-aminopent-3-yn-1-yl)pyridin-2-yl)-4-ethoxy-1H-indazol-1-yl)pyridin-2-yl)methanol], with below 0.1 µM; and `CC(=O)C[C@H](N)c1cccc(-c2ccc3cnn(-c4cccc(CO)n4)c3c2)n1` [Example 449, (S)-4-amino-4-(6-(1-(6-(hydroxymethyl)pyridin-2-yl)-1H-indazol-6-yl)pyridin-2-yl)butan-2-one], with below 0.1 µM.
Compound `COCCOc1cc(-c2cccc([C@@H](N)CC(C)(F)F)n2)cc2c1cnn2-c1cccc(CO)n1` [Example 455, (S)-(6-(6-(6-(1-amino-3,3-difluorobutyl)pyridin-2-yl)-4-(2-methoxyethoxy)-1H-indazol-1-yl)pyridin-2-yl)methanol] showed an IC50 below 0.1 µM.
Then `C[C@H](N)c1cccc(-c2cc(OCCCO)c3cnn(-c4cccc(CO)n4)c3c2)n1` [Example 459, (S)-3-((6-(6-(1-aminoethyl)pyridin-2-yl)-1-(6-(hydroxymethyl)pyridin-2-yl)-1H-indazol-4-yl)oxy)propan-1-ol], with below 0.1 µM; and `CCC[C@H](N)c1cccc(-c2cc(OCCCO)c3cnn(-c4cccc(CO)n4)c3c2)n1` [Example 460, (S)-3-((6-(6-(1-aminobutyl)pyridin-2-yl)-1-(6-(hydroxymethyl)pyridin-2-yl)-1H-indazol-4-yl)oxy)propan-1-ol], with below 0.1 µM.
Then `CC[C@H](N)c1cccc(-c2cc(OCCCO)c3cnn(-c4cccc(CO)n4)c3c2)n1` [Example 461, (S)-3-((6-(6-(1-aminopropyl)pyridin-2-yl)-1-(6-(hydroxymethyl)pyridin-2-yl)-1H-indazol-4-yl)oxy)propan-1-ol], with below 0.1 µM; and `CCC[C@H](N)c1cccc(-c2cc(C#CC(C)(C)O)c3cnn(-c4cccc(CO)n4)c3c2)n1` [Example 462, (S)-4-(6-(6-(1-aminobutyl)pyridin-2-yl)-1-(6-(hydroxymethyl)pyridin-2-yl)-1H-indazol-4-yl)-2-methylbut-3-yn-2-ol], with 1 to 10 µM.
With `COCCOc1cc(-c2cccc(C3(N)COC3)n2)cc2c1cnn2-c1cccc(CO)n1` [Example 465, (6-(6-(6-(3-aminooxetan-3-yl)pyridin-2-yl)-4-(2-methoxyethoxy)-1H-indazol-1-yl)pyridin-2-yl)methanol] the figure was 0.1 to 1 µM.
`COCCOc1cc(-c2cccc(C3(N)CCOC3)n2)cc2c1cnn2-c1cccc(CO)n1` (stereo not shown) [Example 466, (6-(6-(6-(3-aminotetrahydrofuran-3-yl)pyridin-2-yl)-4-(2-methoxyethoxy)-1H-indazol-1-yl)pyridin-2-yl)methanol]: the IC50 was below 0.1 µM.
Then `COCCOc1cc(-c2cccc(C3(N)CCC3)n2)cc2c1cnn2-c1cccc(CO)n1` [Example 467, (6-(6-(6-(1-aminocyclobutyl)pyridin-2-yl)-4-(2-methoxyethoxy)-1H-indazol-1-yl)pyridin-2-yl)methanol], with below 0.1 µM.
With `COCCOc1cc(-c2cccc(C3(N)CCC3)n2)cc2c1cnn2-c1cncc(CO)n1` [Example 468, (6-(6-(6-(1-aminocyclobutyl)pyridin-2-yl)-4-(2-methoxyethoxy)-1H-indazol-1-yl)pyrazin-2-yl)methanol] the figure was below 0.1 µM.
With `COCCOc1cc(-c2cccc(C3(N)CCCC3)n2)cc2c1cnn2-c1cccc(CO)n1` [Example 469, (6-(6-(6-(1-aminocyclopentyl)pyridin-2-yl)-4-(2-methoxyethoxy)-1H-indazol-1-yl)pyridin-2-yl)methanol] the figure was below 0.1 µM; with `CCC[C@H](N)c1cccc(-c2cc(OCCS(C)(=O)=O)c3cnn(-c4cccc(CO)n4)c3c2)n1` [Example 470, (S)-(6-(6-(6-(1-aminobutyl)pyridin-2-yl)-4-(2-(methylsulfonyl)ethoxy)-1H-indazol-1-yl)pyridin-2-yl)methanol], 0.1 to 1 µM; with `CCC[C@H](N)c1cccc(-c2cc(OCC(C)(C)O)c3cnn(-c4cccc(CO)n4)c3c2)n1` [Example 471, (S)-1-((6-(6-(1-aminobutyl)pyridin-2-yl)-1-(6-(hydroxymethyl)pyridin-2-yl)-1H-indazol-4-yl)oxy)-2-methylpropan-2-ol], below 0.1 µM.
Regarding `C[C@H](N)c1cccc(-c2ccc3cnn(-c4cccc(C(=O)O)n4)c3c2)n1` [Example 472, 6-{6-[6-((S)-1-Amino-ethyl)-pyridin-2-yl]-indazol-1-yl}-pyridine-2-carboxylic acid], the IC50 was in the range of 1 to 10 µM.
Then `CCC[C@H](N)c1cccc(-c2cc(C3CCCO3)c3cnn(-c4cccc(CO)n4)c3c2)n1` (stereo partly drawn) [Example 477, (6-(6-(6-((S)-1-aminobutyl)pyridin-2-yl)-4-(tetrahydrofuran-2-yl)-1H-indazol-1-yl)pyridin-2-yl)methanol], with below 0.1 µM; and `CCC[C@H](N)c1cccc(-c2cc([C@H]3CC[C@@H](C)O3)c3cnn(-c4cccc(CO)n4)c3c2)n1` [Example 478, (6-(6-(6-((S)-1-aminobutyl)pyridin-2-yl)-4-((2R,5R)-5-methyltetrahydrofuran-2-yl)-1H-indazol-1-yl)pyridin-2-yl)methanol], with below 0.1 µM; and `CCC[C@H](N)c1cccc(-c2cc([C@@H]3CC[C@@H](C)O3)c3cnn(-c4cccc(CO)n4)c3c2)n1` [Example 479, (6-(6-(6-((S)-1-aminobutyl)pyridin-2-yl)-4-((2S,5R)-5-methyltetrahydrofuran-2-yl)-1H-indazol-1-yl)pyridin-2-yl)methanol], with below 0.1 µM.
Then `CCC[C@H](N)c1cccc(-c2cc(OCCOC)c3cnn(-c4cncc(CO)n4)c3c2)n1` [Example 480, (S)-(6-(6-(6-(1-aminobutyl)pyridin-2-yl)-4-(2-methoxyethoxy)-1H-indazol-1-yl)pyrazin-2-yl)methanol], with below 0.1 µM; and `COCCOc1cc(-c2cccc([C@H](C)N)n2)cc2c1cnn2-c1cncc(CO)n1` [Example 481, (S)-(6-(6-(6-(1-aminoethyl)pyridin-2-yl)-4-(2-methoxyethoxy)-1H-indazol-1-yl)pyrazin-2-yl)methanol], with below 0.1 µM; and `CC[C@H](N)c1cccc(-c2cc(OCCOC)c3cnn(-c4cncc(CO)n4)c3c2)n1` [Example 482, (S)-(6-(6-(6-(1-aminopropyl)pyridin-2-yl)-4-(2-methoxyethoxy)-1H-indazol-1-yl)pyrazin-2-yl)methanol], with below 0.1 µM.
With `COCCOc1cc(-c2cccc([C@@H](N)CCCO)n2)cc2c1cnn2-c1cccc(CO)n1` [Example 484, (S)-4-amino-4-(6-(1-(6-(hydroxymethyl)pyridin-2-yl)-4-(2-methoxyethoxy)-1H-indazol-6-yl)pyridin-2-yl)butan-1-ol] the figure was below 0.1 µM.
As for `Cc1cccc(-n2ncc3ccc(-c4cccc(C(N)CC(F)(F)F)n4)cc32)n1` (stereo not shown) [Example 551, 3,3,3-trifluoro-1-(6-(1-(6-methylpyridin-2-yl)-1H-indazol-6-yl)pyridin-2-yl)propan-1-amine], the half-inhibitory concentration (IC50) lay in the range of 0.1 to 1 µM.
With `Cc1cccc(-n2ncc3c(-c4nnc(C)o4)cc(-c4cccc(C(C)N)n4)cc32)n1` (stereo not shown) [Example 557, 1-(6-(4-(5-methyl-1,3,4-oxadiazol-2-yl)-1-(6-methylpyridin-2-yl)-1H-indazol-6-yl)pyridin-2-yl)ethanamine] the figure was 0.1 to 1 µM.
`Cc1cncc(-n2ncc3ccc(-c4cccc(C(C)N)n4)cc32)n1` (stereo not shown) [Example 559, 1-(6-(1-(6-methylpyrazin-2-yl)-1H-indazol-6-yl)pyridin-2-yl)ethanamine]: the IC50 lay in the range of 0.1 to 1 µM.
Then `N#CC(N)c1cccc(-c2ccc3cnn(-c4cccc(CO)n4)c3c2)n1` (stereo not shown) [Example 560, 2-amino-2-(6-(1-(6-(hydroxymethyl)pyridin-2-yl)-1H-indazol-6-yl)pyridin-2-yl)acetonitrile], with 1 to 10 µM.
With `NC(=O)C(N)c1cccc(-c2ccc3cnn(-c4cccc(CO)n4)c3c2)n1` (stereo not shown) [Example 561, 2-amino-2-(6-(1-(6-(hydroxymethyl)pyridin-2-yl)-1H-indazol-6-yl)pyridin-2-yl)acetamide] the figure was 0.1 to 1 µM.
With `CC(N)c1cccc(-c2ccc3cnn(-c4ccnc(C#N)n4)c3c2)n1` (stereo not shown) [Example 562, 4-(6-(6-(1-aminoethyl)pyridin-2-yl)-1H-indazol-1-yl)pyrimidine-2-carbonitrile] the figure was 1 to 10 µM; with `CC(N)c1cccc(-c2ccc3cnn(-c4cccc(CO)n4)c3c2)c1` (stereo not shown) [Example 563, (6-(6-(3-(1-aminoethyl)phenyl)-1H-indazol-1-yl)pyridin-2-yl)methanol], 0.1 to 1 µM.
On to `CC(N)c1ccc(F)c(-c2ccc3cnn(-c4cccc(CO)n4)c3c2)n1` (stereo not shown) [Example 564, (6-(6-(6-(1-aminoethyl)-3-fluoropyridin-2-yl)-1H-indazol-1-yl)pyridin-2-yl)methanol], for which the IC50 fell in the range of 0.1 to 1 µM.
Then `C[C@H](N)c1cccc(-c2ccc3cnn(-c4nc(CO)ccc4F)c3c2)n1` [Example 565, (S)-(6-(6-(6-(1-aminoethyl)pyridin-2-yl)-1H-indazol-1-yl)-5-fluoropyridin-2-yl)methanol], with 0.1 to 1 µM.
